According to US6653306B1, “Epoxy-steroidal aldosterone antagonist and angiotensin II antagonist combination therapy” (G.D. Searle & Co., priority 1995, dated 2003):
Where “and” joins values, the source holds several entries; their conditions need not be identical. Equal entries are not always repeated.

Key:
[1] = target: angiotensin II AT1 receptor; assay: Assay A: Angiotensin II binding activity (125I-AII displacement, rat uterine membrane preparation)
[2] = tested on: rabbit aortic rings; assay: Assay B: In vitro vascular smooth muscle response for AII (antagonist activity, pA2); format: cell-based; settings: in vitro vascular smooth muscle response, two values per cell separated by / are separate determinations; for Kb: Oryctolagus cuniculus, read-out: Assay B pA2 (converted)
Experimental: Assay B: In Vitro Vascular Smooth Muscle-response for AII
The compounds of the invention were tested for antagonist activity in rabbit aortic rings. Male New Zealand white rabbits (2-2.5 kg) were sacrificed using an overdose of pentobarbital and exsanguinated via the carotid arteries. The thoracic aorta was removed, cleaned of adherent fat and connective tissue and then cut into 3-mm ring segments. The endothelium was removed from the rings by gently sliding a rolled-up piece of filter paper into the vessel lumen. The rings were then mounted in a water-jacketed tissue bath, maintained at 37° C., between moveable and fixed ends of a stainless steel wire with the moveable end attached to an FT03 Grass transducer coupled to a Model 7D Grass Polygraph for recording isometric force responses. The bath was filled with 20 ml of oxygenated (95% oxygen/5% carbon dioxide) Krebs solution of the following composition (mM): 130 NaCl, […], 15 KCl, 1.2 NaH2PO4, 1.2 MgSO4, 2.5 CaCl2, and 11.4 glucose. The preparations were equilibrated for one hour before approximately one gram of passive tension was placed on the rings. Angiotensin II concentration-response curves were then recorded (3×10^−10 to 1×10^−5 M). Each concentration of AII was allowed to elicit its maximal contraction, and then AII was washed out repeatedly for 30 minutes before rechallenging with a higher concentration of AII. Aorta rings were exposed to the test antagonist at […] for 5 minutes before challenging with AII. Adjacent segments of the same aorta ring were used for all concentration-response curves in the presence or absence of the test antagonist. The effectiveness of the test compound was expressed in terms of pA2 values and were calculated according to H. O. Schild [Br. J. Pharmacol, Chemother., 2,189-206 (1947)]. The pA2 value is the concentration of the antagonist which increases the EC50 value for AII by a factor of two. Each test antagonist was evaluated in aorta rings from two rabbits.

| IC50 [1] [nM] | SMILES | Kb [2] [nM] | Assay B pA2 [2] |
| --- | --- | --- | --- |
| 25 | CCCCc1nn(CC(=O)C23CC4CC(CC(C4)C2)C3)c(=O)n1Cc1ccc(-c2ccccc2-c2nn[nH]n2)cc1 [Compound 80] | 7.94 |  |
| 110 | CCCCc1nc(CCCO)n(Cc2ccc(-c3ccccc3-c3nnn[nH]3)cc2)n1 [Compound 46] | 158 |  |
| 40 | CCCCn1nc(C(F)(F)CCC)nc1Cc1ccc(-c2ccccc2-c2nnn[nH]2)cc1 [Compound 130] | 7.94 |  |
| 790 | CCCCc1nc(CC2CCCCC2)n(Cc2ccc(-c3ccccc3-c3nnn[nH]3)cc2)n1 [Compound 73] | 22.4 |  |
| 65 | CCCCc1ncnn1Cc1ccc(-c2ccccc2-c2nnn[nH]2)cc1 [Compound 53] | 27.5 |  |
| 190 | CCCCc1cn(-c2c(C(C)C)cccc2C(C)C)c(=O)n1Cc1ccc(-c2ccccc2-c2nnn[nH]2)cc1 [Compound 277] | 288 |  |
| 480 | CCCCc1nc(C)nn1Cc1ccc(-c2ccccc2C(=O)O)cc1 [Compound 280] | 389 |  |
| 140 | CCCCc1nc(CCCC2CCCCC2)nn1Cc1ccc(-c2ccccc2-c2nnn[nH]2)cc1 [Compound 58] | 355 |  |
| 180 | CCCCc1nn(CC(OCC(=O)OCC)c2ccccc2)c(=O)n1Cc1ccc(-c2ccccc2-c2nn[nH]n2)cc1 (centres unmarked) [Compound 107] | 5.01 |  |
| 0.11 | CCCCc1nc(CCCC)n(Cc2ccc(-n3c(Br)ccc3-c3nnn[nH]3)cc2)n1 [Compound 141] | 9.55 |  |
| 130 | CCCc1cn(CCC)c(=O)n1Cc1ccc(-c2ccccc2-c2nnn[nH]2)cc1 [Compound 138] | 6.31 |  |
| 2300 | CCCCc1nc(CCCC2CCCCC2)n(Cc2ccc(-c3ccccc3-c3nnn[nH]3)cc2)n1 [Compound 57] | 1000 |  |
| 4.9 | CCCCc1nn(CCCC)c(=O)n1Cc1ccc(-c2ccccc2-c2nnn[nH]2)cc1 [Compound 79] | 0.631 |  |
| 10 | CCCCc1nc(CC)nn1Cc1ccc(-c2ccccc2-c2nnn[nH]2)cc1 [Compound 39] | 13.2 |  |
| 420 | CCCCn1nc(C(F)(F)CC)nc1Cc1ccc(-c2ccccc2-c2nnn[nH]2)nc1 [Compound 168] | 20.4 |  |
| 48 | CCCCn1nc(C(C#N)CCC)n(Cc2ccc(-c3ccccc3-c3nn[nH]n3)cc2)c1=O (centres unmarked) [Compound 106] | 20 |  |
| 18 | CCCCc1nn(CCC2CCCCC2)c(=O)n1Cc1ccc(-c2ccccc2-c2nn[nH]n2)cc1 [Compound 89] | 12.6 |  |
| 6.4 | CCCCc1nc(CCC(C)C)n(Cc2ccc(-c3ccccc3-c3nnn[nH]3)cc2)n1 [Compound 16] | 1.12 |  |
| 3100 | CCCCc1nc(CCCNC(=O)OC(C)(C)C)n(Cc2ccc(-c3ccccc3-c3nnn[nH]3)cc2)n1 [Compound 67] | 1320 |  |
| 180 | CCCn1nc(C(OC)OC)nc1Cc1ccc(-c2ccccc2-c2nnn[nH]2)nc1 [Compound 174] | 51.3 |  |

| IC50 [1] [nM] | SMILES | Kb [2] [nM] | Assay B pA2 [2] |
| --- | --- | --- | --- |
| 16 | CCCCc1nc(CCC)n(Cc2ccc(-c3ccccc3-c3nnn[nH]3)cc2)n1 [Compound 15] | 4.9 |  |
| 64 | CCCCn1nc(C(=O)CCC)nc1Cc1ccc(-c2ccccc2-c2nnn[nH]2)nc1 [Compound 160] | 13.5 |  |
| 41 | CCCCc1nc(CNC(=O)OC(C)(C)C)nn1Cc1ccc(-c2ccccc2-c2nnn[nH]2)cc1 [Compound 35] | 56.2 |  |
| 1100 | CCCCc1nc(Cc2ccc(-c3ccccc3-c3nnn[nH]3)nc2)n(CC(C)(C)C)n1 [Compound 184] | 166 |  |
| 100 | CCCCc1nc(C(=O)O)nn1Cc1ccc(-c2ccccc2-c2nnn[nH]2)cc1 [Compound 52] | 7.24 |  |
| 370 | CCCn1nc(C(F)(F)CC)nc1Cc1ccc(-c2ccccc2-c2nnn[nH]2)nc1 [Compound 167] | 83.2 |  |
| 97 | CCCCn1nc(/C=C/c2cccs2)nc1Cc1ccc(-c2ccccc2-c2nnn[nH]2)nc1 [Compound 154] | 6.46 |  |
| 4.4 | CCCCc1nc(CCCO)nn1Cc1ccc(-c2ccccc2-c2nnn[nH]2)cc1 [Compound 45] | 3.89 |  |
| 3100 | CCCCc1ncn(Cc2ccc(-c3ccccc3-c3nnn[nH]3)cc2)n1 [Compound 54] | 955 |  |
| 21 | CCCCc1nc(C(F)F)nn1Cc1ccc(-c2ccccc2-c2nnn[nH]2)cc1 [Compound 47] | 14.1 |  |
| 35 | CCCCc1nn(CCC(C)CC(C)(C)C)c(=O)n1Cc1ccc(-c2ccccc2-c2nn[nH]n2)cc1 (centres unmarked) [Compound 92] | 12.6 |  |
| 4 | CCCCc1nc(CCC(C)C)nn1Cc1ccc(-c2ccccc2-c2nnn[nH]2)cc1 [Compound 17] | 2.29 |  |
| 120 | CCCCc1nc(C=O)nn1Cc1ccc(-c2ccccc2-c2nnn[nH]2)cc1 [Compound 49] | 87.1 |  |
| 12 | CCCCc1nn(CCCCC(=O)O)c(=O)n1Cc1ccc(-c2ccccc2-c2nn[nH]n2)cc1 [Compound 103] | 10 |  |
| 280 | CCCCc1nn(Cc2ccc3ccccc3c2)c(=O)n1Cc1ccc(-c2ccccc2-c2nn[nH]n2)cc1 [Compound 99] | 316 |  |
| 6700 | CCCCc1nc(Cc2ccc(-c3ccccc3-c3nnn[nH]3)cc2)nn1CCCC [Compound 129] | 5010 |  |
| 66 | CCCCc1nn(C(=O)CCC)c(=O)n1Cc1ccc(-c2ccccc2-c2nn[nH]n2)cc1 [Compound 95] | 6.31 |  |
| 160 | CCCCc1nc(C(=O)NC)nn1Cc1ccc(-c2ccccc2-c2nnn[nH]2)nc1 [Compound 257] | 234 |  |
| 370 | CCCCc1nc(CCC2CCCCC2)n(Cc2ccc(-c3ccccc3-c3nnn[nH]3)cc2)n1 [Compound 42] | 275 |  |
| 530 | CCCCc1nc(-c2ccccc2C)n(Cc2ccc(-c3ccccc3-c3nnn[nH]3)nc2)n1 [Compound 262] | 603 |  |

| IC50 [1] [nM] | SMILES | Kb [2] [nM] | Assay B pA2 [2] |
| --- | --- | --- | --- |
| 310 | CCCCn1nc(C=O)nc1Cc1ccc(-c2ccccc2-c2nnn[nH]2)nc1 [Compound 179] | 214 |  |
| 10 | CCCCc1nc(C(OC)OC)nn1Cc1ccc(-c2ccccc2-c2nnn[nH]2)cc1 [Compound 24] | 27.5 |  |
| 23 | CCCCc1nc(C2CCCCC2)n(Cc2ccc(-c3ccccc3-c3nnn[nH]3)cc2)n1 [Compound 65] | 14.1 |  |
| 91 | CCCCc1nn(CC(=O)O)c(=O)n1Cc1ccc(-c2ccccc2-c2nn[nH]n2)cc1 [Compound 87] | 15.8 |  |
| 16 | CCCCc1nc(Cc2ccc(-c3ccccc3-c3nnn[nH]3)cc2)n(CCCC)n1 [Compound 128] | 2.34 |  |
| 36 | CCCCc1nn(C(CC(=O)OCC)C(=O)c2ccccc2)c(=O)n1Cc1ccc(-c2ccccc2-c2nn[nH]n2)cc1 (centres unmarked) [Compound 101] | 15.8 |  |
| 3700 | CCCCc1nc(CNC(=O)CCC(NC(C)=O)C(=O)OC(C)(C)C)nn1Cc1ccc(-c2ccccc2-c2nnn[nH]2)cc1 (centres unmarked) [Compound 41] | 2090 |  |
| 6.5 | CCCCc1nc(CC2CCCCC2)nn1Cc1ccc(-c2ccccc2-c2nnn[nH]2)cc1 [Compound 74] | 2.75 |  |
| 72 | CCCc1nc(CCC)n(Cc2ccc(-c3ccccc3-c3nnn[nH]3)nc2)n1 [Compound 246] | 34.7 |  |
| 220 | CCCCc1c(C)n(CCCC)c(=O)n1Cc1ccc(-c2ccccc2-c2nnn[nH]2)cc1 [Compound 137] | 5.01 |  |
| 15 | CCCCc1nn(CC2CC2)c(=O)n1Cc1ccc(-c2ccccc2-c2nn[nH]n2)cc1 [Compound 104] | 10 |  |
| 590 | CCCCc1nc2c(Cl)nnc(Cl)c2n1Cc1ccc(-c2ccccc2-c2nnn[nH]2)cc1 [Compound 110] | 398 |  |
| 160 | CCCCn1nc(C(C)(F)F)nc1Cc1ccc(-c2ccccc2-c2nnn[nH]2)nc1 [Compound 166] | 26.9 |  |
| 8.7 | CCCCCCn1nc(CCCC)n(Cc2ccc(-c3ccccc3-c3nn[nH]n3)cc2)c1=O [Compound 85] | 1.26 |  |
| 43 | CCCCc1nn(C(C)(C)C(=O)c2ccccc2)c(=O)n1Cc1ccc(-c2ccccc2-c2nn[nH]n2)cc1 [Compound 102] | 20 |  |
| 270 | CCCCc1cn(-c2c(C)cc(C(C)(C)C)cc2C)c(=O)n1Cc1ccc(-c2ccccc2-c2nnn[nH]2)cc1 [Compound 279] |  | 8.06 and 8.25 |
| 5.6 | CCCCCn1nc(CCCC)n(Cc2ccc(-c3ccccc3-c3nn[nH]n3)cc2)c1=O [Compound 90] | 1 |  |
| 70 | CCCCn1nc(C(=O)NC)nc1Cc1ccc(-c2ccccc2-c2nnn[nH]2)nc1 [Compound 172] | 70.8 |  |
